Results: patent US5324857A, “Inhibition of the formation of nitrosamines” (Solvay Interox, priority 1992, dated 1994)

Columns and labels:
[1] = Nitrosamine formation during oxidation of dodecyldimethylamine with hydrogen peroxide under metal stress conditions, CDTMPA chelant, with free radical scavenger; conditions: for Nitrosamine content, total: MDNA + NDMA; for Nitrosamine content, total / Nitrosamine content, MDNA / Nitrosamine content, NDMA: 2.0 mmoles scavenger, CDTMPA, 60° C. then 75° C., total 4 hours; for Nitrosamine content, MDNA: methyldodecylnitrosamine; for reduction in nitrosamine formation: mixture already containing phosphonic acid chelating agent (CDTMPA), in words; for Nitrosamine content, NDMA: nitrosodimethylamine
Method: This Comparison and these Examples were each carried out using the following general method:-Dodecyldimethylamine (0.2012 moles, 42.94 g), and sufficient pure water to 150 g, ie approximately 106.9 g, were charged into a passivated 250 mL reaction flask, at ambient temperature together with 0.16 g of the stock metal solution described below to introduce 0.011 mmoles of transition metal impurities and thereby create stress conditions. […]
(§1) The stock metal solution was obtained by dissolving CuSO4.5H2O, 0.393 g, MnSO4.H2O, 0.1475 g, K2CrO4, 0.0935 g, Fe(NH4)2(SO4)2.6H2O, 3.5106 g, AlK(SO4)2.12H2O, 8.791 g in 500 mL water (deionized) containing 20 mL of 10%w/w sulfuric acid solution. It contained a total of 2350 ppm metals concentration. Thus, the concentration of metals in the reaction mixture was about 2.3 ppm.
(§2) The reaction mixture was then heated to a temperature of 60° C. and stirred. An aqueous hydrogen peroxide solution, 50% w/w solution, stabilized by sodium pyrophosphate at 70 ppm calculated as PO4, 15.03 g, was then delivered into the reaction mixture at a constant slow rate during the subsequent 45 minutes. In the Examples, but not in the Comparison, the hydrogen peroxide solution also contained 2.0 mmoles of a free radical scavenger, as specified below. When all the hydrogen peroxide had been introduced, the reaction temperature was increased to 75° C. and the reaction permitted to continue for a total of 4 hours. The mixture was then cooled and analyzed for yield of amine oxide and for the production of by-product volatile nitrosamines, specifically methyldodecylnitrosamine (MDNA) and nitrosodimethylamine (NDMA).

[2] = Nitrosamine formation during oxidation of dodecyldimethylamine with hydrogen peroxide under metal stress conditions, DTPA chelant, with free radical scavenger; conditions: for Nitrosamine content, total: MDNA + NDMA; for Nitrosamine content, total / Nitrosamine content, MDNA / Nitrosamine content, NDMA: 2.0 mmoles scavenger, DTPA 0.043 mmoles, 60° C. then 75° C., total 4 hours; for Nitrosamine content, MDNA: methyldodecylnitrosamine; for reduction in nitrosamine formation: mixture already containing carboxylate chelating agent (DTPA), in words; for Nitrosamine content, NDMA: nitrosodimethylamine
Method: This Comparison and these Examples were each carried out using the following general method:-Dodecyldimethylamine (0.2012 moles, 42.94 g), and sufficient pure water to 150 g, ie approximately 106.9 g, were charged into a passivated 250 mL reaction flask, at ambient temperature together with 0.16 g of the stock metal solution described below to introduce 0.011 mmoles of transition metal impurities and thereby create stress conditions. A chelating agent, DTPA, viz diethylenetriaminepentacarboxylic acid, 0.043 mmoles, was then introduced into the mixture to provide a mole ratio to the metal of about 4:1.
as §1, §2
The free radical scavengers were respectively 2,6-di-tert-butyl-4-methylphenol (BHT) in Ex2, butylated hydroxyanisole, a mixture of 2-tert-butylmethoxy anisole and 3-tert-butylmethoxy anisole (BHA) in Ex3, ethyl gallate (EtG) in Ex4 and propyl gallate (PrG) in Ex5.

| SMILES | Nitrosamine content, total [1] [ppb] | Nitrosamine content, MDNA [1] [ppb] | reduction in nitrosamine formation [1] | Nitrosamine content, NDMA [1] [ppb] | Nitrosamine content, total [2] [ppb] | Nitrosamine content, MDNA [2] [ppb] | reduction in nitrosamine formation [2] | Nitrosamine content, NDMA [2] [ppb] |
| --- | --- | --- | --- | --- | --- | --- | --- | --- |
| CCOC(=O)c1cc(O)c(O)c(O)c1 [EtG, ethyl gallate] | 87 | 57 | marked reduction in nitrosamine formation | 30 | 407 | 334 | marked reduction in nitrosamine formation | 73 |
| CCCOC(=O)c1cc(O)c(O)c(O)c1 [PrG, propyl gallate] | 80 | 59 | marked reduction in nitrosamine formation | 21 | 308 | 230 | marked reduction in nitrosamine formation | 78 |
| CCC(C)O (stereo not shown) [BuL, 2-butanol] | 1261 | 582 |  | 679 |  |  |  |  |
| Cc1cc(C(C)(C)C)c(O)c(C(C)(C)C)c1 [BHT, 2,6-di-tert-butyl-4-methylphenol] | 335 | 212 |  | 123 | 1794 | 1420 |  | 374 |
| O=C(O)CCSCCC(=O)O [TPA, thiodipropionic acid] | 541 | 444 |  | 97 |  |  |  |  |
| COc1ccc(O)c(C(C)(C)C)c1 [BHA, butylated hydroxyanisole] | 276 | 151 |  | 125 | 779 | 652 |  | 127 |
